From patent US4360511A, “Amines useful as brain imaging agents” (Medi-Physics, Inc., priority 1980, dated 1982)
Where two headings read alike, the source gives them in different places.

Assay: Bioassay: distribution of I-123-labeled compounds in organs of rats after tail vein injection (percent dose/gram, brain/blood ratio)
Format: in vivo, Female Sprague-Dawley rats
Settings: for Brain/Blood Ratio 5 min. / tissue uptake at 5 min: 5 minutes post-injection; for Brain/Blood Ratio 60 min. / tissue uptake at 1 h: 60 minutes post-injection; for tissue uptake at 5 min / tissue uptake at 1 h: rat, iv, 0.05 to 1.0 mCi, two rats
Protocol: Female Sprague-Dawley rats weighing approximately 150 g were anesthetized with sodium pentobarbital and were injected in a tail vein with from 0.05 to 1.0 mCi (in a volume of 0.2 to 0.5 ml) of the I-123-labeled compound. Two specimens were utilized for each test.
Two animals each were sacrificed at 5 minutes and 60 minutes post-injection, the tails discarded and the amount of activity in various organs determined. Each organ was counted at a standardized geometry with a sodium iodide crystal scintillation counter adjusted for the 159 keV emission of I-123. The organs were also weighed to one thousandth of a gram and the activity calculated as a percent of administered dose per gram of organ weight.
The ratio of brain-to-blood activity was calculated as a percent of administered dose per gram.

[1] = blood, read-out: Percent Dose/Gram Blood 5 min.
[2] = blood, read-out: Percent Dose/Gram Blood 60 min.
[3] = brain, read-out: Percent Dose/Gram Brain 5 min.
[4] = brain, read-out: Percent Dose/Gram Brain 60 min.
[5] = heart, read-out: Percent Dose/Gram Heart 5 min.
[6] = heart, read-out: Percent Dose/Gram Heart 60 min.

Row | SMILES | Brain/Blood Ratio 5 min. | Brain/Blood Ratio 60 min. | tissue uptake at 5 min [1] [%ID/g] | tissue uptake at 1 h [2] [%ID/g] | tissue uptake at 5 min [3] [%ID/g] | tissue uptake at 1 h [4] [%ID/g] | tissue uptake at 5 min [5] [%ID/g] | tissue uptake at 1 h [6] [%ID/g]
1 | CC(Cc1ccccc1)Nc1ccccc1[123I] (racemic) [I--123-N--(o-iodophenyl)amphetamine (dl)] | 1.81 | 0.75 | 0.53 | 0.55 | 0.96 | 0.41 | 1.64 | 0.57
2 | CC(Cc1ccccc1)NCCc1ccccc1[123I] (racemic) [I--123-N--o-iodo-β-phenethylamphetamine (dl)] | 7.13 | 7.86 | 0.12 | 0.11 | 0.82 | 0.83 | 2.02 | 0.48
3 | CC(Cc1ccccc1)NCc1ccccc1[123I] (racemic) [I--123-N--o-iodobenzylamphetamine (dl)] | 3.93 | 1.89 | 0.27 | 0.19 | 1.06 | 0.36 | 0.72 | 0.37
4 | CCN(Cc1ccccc1I)Cc1ccccc1[123I] [I--123-N,N--di-o-iodobenzylethylamine] | 0.68 | 0.88 | 0.52 | 0.28 | 0.36 | 0.25 | 2.11 | 0.5
5 | [123I]c1ccccc1CCN(CCc1ccccc1)CCc1ccccc1 [I--123-N,N--di-β-phenethyl-o-iodo-β-phenethylamine] | 0.24 | 0.17 | 0.83 | 0.65 | 0.2 | 0.11 | 1.18 | 0.62
6 | [123I]c1ccccc1CN(CCc1ccccc1)CCc1ccccc1 [I--123-N,N--di-β-phenethyl-o-iodobenzylamine] | 1.03 | – | 1.03 | – | 1.06 | – | 3.61 | –
7 | [123I]c1ccc(N(Cc2ccccc2)Cc2ccccc2)cc1 [I--123-N,N--dibenzyl-p-iodoaniline] | 0.53 | 0.54 | 0.66 | 0.41 | 0.35 | 0.22 | 2.1 | 0.46
8 | CC(C)N(Cc1ccccc1[123I])C(C)C [I--123-N,N--diisopropyl-o-iodobenzylamine] | 5.73 | 1.31 | 0.25 | 0.35 | 1.4 | 0.46 | 2.12 | 0.46
9 | Cc1cccc(C)c1NC(=O)CNCCc1ccccc1[123I] [I--123-N--(2,6-dimethylphenylcarbamoyl)methyl-o-iodo-β-phenethylamine] | 1.33 | 0.31 | 0.55 | 0.26 | 0.73 | 0.08 | 0.74 | 0.21
10 | [123I]c1ccccc1NCc1ccccc1 [I--123-N--benzyl-o-iodoaniline] | 2.23 | 0.80 | 0.3 | 0.36 | 0.67 | 0.29 | 0.34 | 1.25
11 | [123I]c1ccc(NCc2ccccc2)cc1 [I--123-N--benzyl-p-iodoaniline] | 1.57 | 0.51 | 1 | 0.86 | 1.57 | 0.44 | 1.28 | 0.59
12 | CCNCc1ccccc1[123I] [I--123-N--ethyl-o-iodobenzylamine] | 4.22 | 1.31 | 0.25 | 0.34 | 1.06 | 0.44 | 0.79 | 0.44
13 | CC(C)NCc1cccc([123I])c1 [I--123-N--isopropyl-m-iodobenzylamine] | 7.35 | 4.16 | 0.22 | 0.21 | 1.61 | 0.85 | 0.99 | 0.46
14 | CC(C)NCCc1ccccc1[123I] [I--123-N--isopropyl-o-iodo-β-phenethylamine] | 8.58 | 5.83 | 0.12 | 0.12 | 1.03 | 0.67 | 0.88 | 0.27
15 | CC(C)Nc1ccccc1[123I] [I--123-N--isopropyl-o-iodoaniline] | 1.13 | 0.26 | 0.78 | 0.5 | 0.88 | 0.13 | 0.75 | 0.29
16 | CC(C)NCc1ccccc1[123I] [I--123-N--isopropyl-o-iodobenzylamine, I-123-N-isopropyl-o-iodobenzylamine] | 7.63 | 1.04 | 0.16 | 0.62 | 1.21 | 0.64 | 0.72 | 0.47
17 | CC(C)Nc1ccc([123I])cc1 [I--123-N--isopropyl-p-iodoaniline] | 2.55 | 0.33 | 0.48 | 0.79 | 1.23 | 0.26 | 1.01 | 0.61
18 | CNCCc1ccccc1[123I] [I--123-N--methyl-o-iodo-β-phenethylamine] | 0.49 | – | 1.16 | – | 0.57 | – | 1.07 | –
19 | [123I]c1ccccc1CCN1CCCCC1 [I--123-N--o-iodo-β-phenethylpiperidine] | 2.35 | – | 0.46 | – | 1.08 | – | 1.68 | –
20 | CC1CCC(C)N1Cc1ccccc1[123I] (stereo not shown) [I--123-N--o-iodobenzyl-2,5-dimethylpyrrolidine] | 3.17 | 1.52 | 0.37 | 0.15 | 1.16 | 0.22 | 1.03 | 0.46
